Data set [1] deals with methacholine induced coronary spasm. The data set is described as follows: Coronary dilating activity in anesthetized normotensive rats, antagonism of methacholine induced coronary spasm. It counts as in vivo. Conditions: Rattus norvegicus, iv infusion, water:dimethylformamide 9:1. The procedure: Coronary dilating activity was evaluated in anesthetized normotensive rats (weighing about 500 g), as the ability to antagonize methacholine induced coronary spasm. Rats were instrumented for methacholine infusion into the coronary ostium, while spastic activity was detected as ST segment elevation in D2 ECG recording (K. Sakai et al., J. Pharm. Meth., 5, 325, 1981). The compounds tested by i.v. infusion were dissolved in water:dimethylformamide (9:1 by volume). Activity was detected as normalization of ECG tracing after compounds administration during methacholine infusion.

The nature of data set [2]: LD50 in the mouse per os (method of C. S. Weil). Conditions: in vivo, po. The procedure: The LD50 of the compounds according to the invention was determined in the mouse per os, according to the method described by C. S. Weil (Biometrics, 8, 249, 1952).
In data set [3] the test system is male hypertensive rats (SHR, Wister-Kyoto strain). Description: Antihypertensive activity in male hypertensive rats (SHR), systolic blood pressure by tail-cuff. It counts as in vivo. As to conditions: Rattus norvegicus, po, os, 0.5% methylcellulose, measured 1, 3, 5 and 7 hours after administration. The procedure:
The antihypertensive activity of the esters according to the invention was evaluated in male hypertensive rats (SHR, Wister-Kyoto strain, 15-25 weeks old). The determination of blood pressure was performed by an indirect method (M. Gerald et al., Arzneim, Forsch., 18, 1825, 1968). The animals were prewarmed in a heating chamber at a temperature of from 35° to 37° C. for a period of 15 minutes before pressure determination. The compounds tested by oral route were dissolved or suspended in a 0.5% methylcellulose solution. Controls were given only the vehicle. Systolic blood pressure and heart rate were measured 1, 3, 5 and 7 hours after drug administration by means of a tail-cuff and a pulse transducer.

For orientation: ED50 means the midpoint of the dose-response relation. A word on the LD50: it is the dose at which mortality reaches 50%. In turn, `COC(=O)C1=C(C)NC(C)=C(C(=O)OCCN(C)CCCC(C#N)(c2ccc(OC)c(OC)c2)C(C)C)C1c1cccc([N+](=O)[O-])c1` (centres unmarked) [Compound 2245, Methyl 2-[4-cyano-4-(3,4-dimethoxyphenyl)-5,N-dimethyl-hexylamino]-ethyl 1,4-dihydro-2,6-dimethyl-4-(3-nitrophenyl)-pyridine-3,5-dicarboxylate] displayed an ED50 in data set [1] of 0.301 mg/kg. In addition, the LD50 in data set [2] was determined as 278 mg/kg. This compound also came in with an ED25 in data set [3] of 6.8 mg/kg.

Take `COc1ccc(C(C#N)(CCCN(C)CC(C)OC(=O)C2=C(C)NC(C)=C(C(=O)OCC(C)C)C2c2cccc(Cl)c2Cl)C(C)C)cc1OC` (centres unmarked) [Compound 2392, Isobutyl 2-[4-cyano-4-(3,4-dimethoxyphenyl)-5,N-dimethyl-hexylamino]-1-methylethyl 1,4-dihydro-2,6-dimethyl-4-(2,3-dichlorophenyl)-pyridine-3,5-dicarboxylate]: the ED25 in data set [3] is 14.9 mg/kg. For `CCCOCCOC(=O)C1=C(C)NC(C)=C(C(=O)OC(C)CN(C)CCCC(C#N)(c2ccc(OC)c(OC)c2)C(C)C)C1c1cccc(Cl)c1Cl` (centres unmarked) [Compound 2404, 2-Propoxy-ethyl 2-[4-cyano-4-(3,4-dimethoxyphenyl)-5,N-dimethyl-hexylamino]-1-methylethyl 1,4-dihydro-2,6-dimethyl-4-(2,3-dichlorophenyl)-pyridine-3,5-dicarboxylate], in data set [3], the ED25 came to 17.8 mg/kg.

Values taken from patent publication US4634712A, “Antihypertensive esters of 1,4-dihydro-2,6-dimethyl-3-(alkoxycarbonyl or alkoxyalkoxycarbonyl)-4-(substituted phenyl)-pyridine-5-carboxylic acid” (Recordati S.A., priority 1984, dated 1987).
